Where a name gives a salt, the structure may show the parent alone.
Tests used:
human EP1 receptor = biological target: T1, human EP1 receptor (Homo sapiens, UniProt P34995); assay: human EP1 calcium mobilisation assay; type: cell-based; details: for Ki: human EP1, CHO-K1 cells, antagonism of PGE2, averages of a number of experiments, read-out: functional pKi value (converted)
T1 construct: expressed in transfected cells; host or cells: CHO-K1
T1 sequence (P34995 1-402): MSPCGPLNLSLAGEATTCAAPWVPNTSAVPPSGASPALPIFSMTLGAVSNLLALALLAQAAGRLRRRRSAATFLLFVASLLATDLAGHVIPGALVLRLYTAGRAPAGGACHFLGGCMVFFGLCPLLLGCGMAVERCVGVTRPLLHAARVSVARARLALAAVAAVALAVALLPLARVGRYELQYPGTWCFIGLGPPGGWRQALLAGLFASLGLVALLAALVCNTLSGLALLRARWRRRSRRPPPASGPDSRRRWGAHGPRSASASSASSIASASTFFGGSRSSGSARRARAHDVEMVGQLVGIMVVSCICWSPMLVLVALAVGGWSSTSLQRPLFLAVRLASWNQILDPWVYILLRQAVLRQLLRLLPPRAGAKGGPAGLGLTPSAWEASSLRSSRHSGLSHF
Procedure: (§1) Briefly, the antagonist properties of compounds are assessed by their ability to inhibit the mobilisation of intracellular calcium ([Ca^2+]i) in response to activation of EP1 or EP3 receptors by the natural agonist hormone prostaglandin E2 (PGE2). Increasing concentrations of antagonist reduce the amount of calcium that a given concentration of PGE2 can mobilise. The net effect is to displace the PGE2 concentration-effect curve to higher concentrations of PGE2. The amount of calcium produced is assessed using a calcium-sensitive fluorescent dye such as Fluo-4, AM and a suitable instrument such as a Fluorimetric Imaging Plate Reader (FLIPR). Increasing amounts of [Ca^2+]i produced by receptor activation increase the amount of fluorescence produced by the dye and give rise to an increasing signal. The signal may be detected using the FLIPR instrument and the data generated may be analysed with suitable curve-fitting software.
(§2) The human EP1 or EP3 calcium mobilisation assay (hereafter referred to as ‘the calcium assay’) utilises Chinese hamster ovary-K1 (CHO-K1) cells into which a stable (pCIN; BioTechniques 20 (1996): 102-110) vector containing either EP1 or EP3 cDNA has previously been transfected. Cells are cultured in suitable flasks containing culture medium such as DMEM:F-12 supplemented with 10% v/v foetal calf serum, 2 mM L-glutamine, 0.25 mg/ml geneticin, 100 μM flurbiprofen and 10 μg/ml puromycin.
(§3) For assay, cells are harvested using a proprietary reagent that dislodges cells such as Versene. Cells are re-suspended in a suitable quantity of fresh culture media for introduction into a 384-well plate. Following incubation for 24 hours at 37° C. the culture media is replaced with a medium containing Fluo-4 and the detergent pluronic acid, and a further incubation takes place. Concentrations of compounds are then added to the plate in order to construct concentration-effect curves. This may be performed on the FLIPR in order to assess the agonist properties of the compounds. Concentrations of PGE2 are then added to the plate in order to assess the antagonist properties of the compounds.
(§4) The data so generated may be analysed by means of a computerised curve-fitting routine. The concentration of compound that elicits a half-maximal inhibition of the calcium mobilisation induced by PGE2 (pIC50) may then be estimated.

human EP3 receptor = biological target: T2, human EP3 receptor (Homo sapiens, UniProt P43115); assay: human EP3 calcium mobilisation assay; type: cell-based; details: human EP3, CHO-K1 cells, antagonism of PGE2; averages of a number of experiments; read-out: functional pKi value (converted)
T2 construct: expressed in transfected cells; host or cells: CHO-K1
T2 sequence (P43115 1-390): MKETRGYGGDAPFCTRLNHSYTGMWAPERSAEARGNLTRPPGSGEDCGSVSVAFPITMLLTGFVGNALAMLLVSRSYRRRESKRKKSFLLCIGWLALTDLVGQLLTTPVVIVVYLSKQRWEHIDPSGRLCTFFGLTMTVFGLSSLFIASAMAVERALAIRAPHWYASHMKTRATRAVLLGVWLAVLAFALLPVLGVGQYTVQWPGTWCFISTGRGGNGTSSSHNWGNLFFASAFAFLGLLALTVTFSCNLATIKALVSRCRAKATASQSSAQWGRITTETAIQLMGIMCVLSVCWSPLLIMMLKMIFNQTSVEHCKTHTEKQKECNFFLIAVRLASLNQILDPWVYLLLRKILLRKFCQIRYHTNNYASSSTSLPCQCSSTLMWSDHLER
Procedure: as §1, §2, §3, §4

[1] = biological target: T3, human prostanoid EP1 receptor (Homo sapiens, UniProt P34995); assay: Binding assay for the human prostanoid EP1 receptor (competition with [3H]-PGE2); details: [3H]-PGE2 competition, human EP1, CHO-K1 membranes; averages of a number of experiments; read-out: pIC50 value (converted)
T3 construct: expressed in transfected cells; host or cells: CHO-K1 (membrane fraction)
T3 sequence (P34995 1-402): T1 sequence (P34995 1-402)
Procedure: Competition assay using [^3H]-PGE2.
Compound potencies are determined using a radioligand binding assay. In this assay compound potencies are determined from their ability to compete with tritiated prostaglandin E2 ([^3H]-PGE2) for binding to the human EP1 receptor.
This assay utilises Chinese hamster ovary-K1 (CHO-K1) cells into which a stable vector containing the EP1 cDNA has previously been transfected. Cells are cultured in suitable flasks containing culture medium such as DMEM:F-12 supplemented with 10% v/v foetal calf serum, 2 mM L-glutamine, 0.25 mg/ml geneticin, 10 μg/ml puromycin and 10 μM indomethacin.
Cells are detached from the culture flasks by incubation in calcium and magnesium free phosphate buffered saline containing 1 mM disodium ethylenediaminetetraacetic acid (Na2EDTA) and 10 μM indomethacin for 5 min. The cells are isolated by centrifugation at 250×g for 5mins and suspended in an ice cold buffer such as 50 mM Tris, 1 mM Na2EDTA, 140 mM NaCl, 10 μM indomethacin (pH 7.4). The cells are homogenised using a Polytron tissue disrupter (2×10 s burst at full setting), centrifuged at 48,000×g for 20mins and the pellet containing the membrane fraction is washed (optional) three times by suspension and centrifugation at 48,000×g for 20mins. The final membrane pellet is suspended in an assay buffer such as 10 mM 2-[N-morpholino]ethanesulphonic acid, 1 mM Na2EDTA, 10 mM MgCl2 (pH 6). Aliquots are frozen at −80° C. until required.
For the binding assay the cell membranes, competing compounds and [^3H]-PGE2 (3 nM final assay concentration) are incubated in a final volume of 100 μl for 30 min at 30° C. All reagents are prepared in assay buffer. Reactions are terminated by rapid vacuum filtration over GF/B filters using a Brandell cell harvester. The filters are washed with ice cold assay buffer, dried and the radioactivity retained on the filters is measured by liquid scintillation counting in Packard TopCount scintillation counter.
The data are analysed using non linear curve fitting techniques to determine the concentration of compound producing 50% inhibition of specific binding (IC50).

EP1 receptor [2] = biological target: T4, EP1 receptor (Rattus norvegicus, UniProt P70597); set-up: host or cells: rodent, in vivo; details: rodent, post-operative pain; cited from earlier work
T4 sequence (P70597 1-405): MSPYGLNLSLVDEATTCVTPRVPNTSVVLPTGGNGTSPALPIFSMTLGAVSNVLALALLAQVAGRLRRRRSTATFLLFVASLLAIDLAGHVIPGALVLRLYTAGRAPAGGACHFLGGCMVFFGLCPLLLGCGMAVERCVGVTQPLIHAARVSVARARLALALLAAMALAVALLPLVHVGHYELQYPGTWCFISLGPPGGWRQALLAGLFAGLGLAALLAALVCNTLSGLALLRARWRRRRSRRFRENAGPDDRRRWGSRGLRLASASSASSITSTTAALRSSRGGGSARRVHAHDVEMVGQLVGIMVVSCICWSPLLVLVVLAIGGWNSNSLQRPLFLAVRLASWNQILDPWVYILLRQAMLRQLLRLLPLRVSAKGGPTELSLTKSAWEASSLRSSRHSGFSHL

EP1 receptor [3] = biological target: T4, EP1 receptor; set-up: host or cells: rat, in vivo; details: chronic constriction injury; cited from earlier work

Structure (SMILES)	IC50 (human EP1 receptor; human EP1 calcium mobilisation assay, read-out: pIC50 values (converted)) [nM]	Ki (human EP3 receptor) [nM]	Ki (human EP1 receptor) [nM]	IC50 [1] [nM]	mechanical hyperalgesia (EP1 receptor [2])	hyperalgesia and allodynia (EP1 receptor [3])
CC(C)(C)NC(=O)c1cccc(Cc2cc(Cl)ccc2OCc2ccccc2)n1 [Example 8, 6-({5-Chloro-2-[(phenylmethyl)oxy]phenyl}methyl)-N-(1,1-dimethylethyl)-2-pyridinecarboxamide]	> 10000	≤ 3160	–	–	–	–
CC(C)COc1ccc(Cl)cc1Cc1cccc(-c2nc3c(ccc4nn[nH]c43)[nH]2)n1 [Example 25, 7-[6-({5-Chloro-2-[(2-methylpropyl)oxy]phenyl}methyl)-2-pyridinyl]-1,6-dihydroimidazo[4,5-e][1,2,3]benzotriazolehydrochloride]	–	≤ 1000	≤ 316	–	–	–
CC(C)COc1ccc(Cl)cc1Cc1cccc(-c2nc3ccc(CN(C)C)cc3[nH]2)n1 [Example 51, ({2-[6-({5-Chloro-2-[(2-methylpropyl)oxy]phenyl}methyl)-2-pyridinyl]-1H-benzimidazol-5-yl}methyl)dimethylaminehydrochloride]	–	≤ 3160	≤ 316	≤ 100	–	–
CC(C)NC(=O)c1cccc(Cc2cc(Cl)ccc2OCc2ccccc2)n1 [Example 9, 6-({5-Chloro-2-[(phenylmethyl)oxy]phenyl}methyl)-N-(1-methylethyl)-2-pyridinecarboxamide]	–	≤ 1000	≤ 316	–	–	–
CC(C)COc1ccc(Cl)cc1Cc1cccc(-c2nc3ncccc3[nH]2)n1 [Example 21, 2-[6-({5-Chloro-2-[(2-methylpropyl)oxy]phenyl}methyl)-2-pyridinyl]-1H-imidazo[4,5-b]pyridine hydrochloride]	–	≤ 3160	≤ 316	≤ 100	–	–
CC(C)COc1ccc(Cl)cc1Cc1cccc(-c2nc3cc4cnn(C)c4cc3[nH]2)n1 [Example 23, 6-[6-({5-Chloro-2-[(2-methylpropyl)oxy]phenyl}methyl)-2-pyridinyl]-1-methyl-1,5-dihydroimidazo[4,5-f]indazolehydrochloride]	–	≤ 1000	≤ 316	–	–	–
Cc1cc(Cl)ccc1S(=O)(=O)NC[C@H]1C2CCC(CC2)[C@@H]1/C=C\CCCC(=O)O [ONO-8711]	–	–	–	–	inhibits mechanical hyperalgesia	reduces hyperalgesia and allodynia
Clc1ccc(OCc2ccccc2)c(Cc2cccc(-c3ncc[nH]3)n2)c1 [Example 43, 2-({5-Chloro-2-[(phenylmethyl)oxy]phenyl}methyl)-6-(1H-imidazol-2-yl)pyridine Hydrochloride]	–	≤ 1000	≤ 316	≤ 100	–	–
Clc1ccc(OCc2ccccc2)c(Cc2cccc(-c3nc4cc5cn[nH]c5cc4[nH]3)n2)c1 [Example 39, 6-[6-({5-Chloro-2-[(phenylmethyl)oxy]phenyl}methyl)-2-pyridinyl]-1,5-dihydroimidazo[4,5-f]indazolehydrochloride]	–	≤ 3160	≤ 316	≤ 100	–	–
Clc1ccc(OCc2ccccc2)c(Cc2cccc(-c3nc4cncnc4[nH]3)n2)c1 [Example 33, 8-[6-({5-Chloro-2-[(phenylmethyl)oxy]phenyl}methyl)-2-pyridinyl]-1H-purinehydrochloride]	–	≤ 1000	≤ 316	≤ 100	–	–
CC(C)COc1ccc(Cl)cc1Cc1cccc(-c2nc3ccc(CN4CCCC4)cc3[nH]2)n1 [Example 49, 2-[6-({5-Chloro-2-[(2-methylpropyl)oxy]phenyl}methyl)-2-pyridinyl]-5-(1-pyrrolidinylmethyl)-1H-benzimidazole hydrochloride]	–	≤ 3160	≤ 10000	–	–	–
O=C(Nc1cccc(Cc2cc(Cl)ccc2OCc2ccccc2)n1)C1CCOCC1 [Example 14, N-[6-({5-Chloro-2-[(phenylmethyl)oxy]phenyl}methyl)-2-pyridinyl]tetrahydro-2H-pyran-4-carboxamide]	–	≤ 3160	≤ 316	–	–	–
